We go through 14 compounds from US20240181111A1, “SYSTEMS AND METHODS FOR AIR SANITIZATION USING FORMULAS CONTAINING AN ORGANIC ACID” (The Clorox Company, priority 2022, published 2024).

For data set [1] the following is noted: cited from earlier work.
The conditions of data set [2]: cited from earlier work. The source holds these as a separate data set.
A short description of data set [3]: Candidate screening for antimicrobial synergy with lactic acid. The procedure:
In addition to tested organic acids, a number of glycols, alcohols, diols and other candidates were also screened, for pairing with the organic acid. Viable candidates may also have: 1) a vapor pressure characteristics as noted above; 2) be soluble in water; and/or 3) have an ECHA Inhalation Threshold for the General Population of greater than 10 mg/m^3.
As such, while glycols may optionally be present, in an embodiment, the present formulations may be void, or substantially void of such glycol components (particularly propylene glycol and glycols including an ether group). The same may be said for various other candidate materials noted in Table 2.

The conditions of data set [4]: cited from earlier work. The source holds these as a separate data set.
Data set [5] can be described thus: Acid dissociation of lactic acid. Format: physicochemical. To be noted: at a pH of 2.2. The text has this:
In another aspect, the pH of the antimicrobial formulation is kept low. A low pH can be important for lactic acid or other acids to achieve air sanitization efficacy. […].

[6] abbreviates: Table 2 candidates for pairing with the organic acid.
[7] abbreviates: Table 1 organic acids, standard conditions (e.g., 20° C. and 1 atmosphere).
Setting [8] is: organic acids, long term inhalation.

Where “and” joins values, the source holds several entries; their conditions need not be identical. Identical values can stand only once. Like-named read-outs stand apart in the source and are kept apart here.

Turning to `CCC(O)CO` (stereo not shown) [1,2-butanediol], the “ECHA Inhalation Threshold for General Population” value (from here on “ECHA Inhalation Threshold”) in data set [1] (Table 2 candidates) was “No hazard identified”. Besides, the “Vapor Pressure” value in data set [2] (setting [6]) is on record as 10 Pa.

Take `CCCCC(O)CO` (stereo not shown) [1,2-hexanediol (HDO), 1,2-hexanediol]: the “antimicrobial synergy with lactic acid” value in data set [3] is given as “synergy with lactic acid”.

Regarding `CC(O)CCO` (stereo not shown) [1,3-butanediol], in data set [2] (setting [6]), the “Vapor Pressure” value is 26 Pa.

`CCCCCCCCCCCCO` [1-dodecanol]: in data set [1] (Table 2 candidates), the “ECHA Inhalation Threshold” value is 77 mg/m^3.

With `O=C(O)CCO` [3-hydroxypropionic acid], in data set [4], the “Solubility in water (g of compound in 100 g of water at ~20° C.)” value (“Solubility in water” below) is on record as “Very soluble^1”.

Consider `CC(=O)O` [acetic acid], for which the “ECHA local effects DNEL” value in data set [1] (local effects) is given as 25 mg/m^3)^1. The “Vapor Pressure” value in data set [2] (setting [7]) was 2080^3 Pa.

Take `O=C(O)CCCCC(=O)O` [adipic acid]: the “Vapor Pressure” value in data set [2] (setting [7]) is 9.70^1 Pa.

Regarding `O=C(O)c1ccccc1` [benzoic acid], the “ECHA Inhalation Threshold” value in data set [1] (setting [8]) is recorded as 1.5^3 mg/m^3. Further, the “Vapor Pressure” value in data set [2] (setting [7]) is 0.11^1 Pa.

For `O=C(O)CO` [glycolic acid], in data set [1] (setting [8]), the “ECHA Inhalation Threshold” value was 2.6 mg/m^3 and 2.6^3 mg/m^3.

As to `CCCCCCC(=O)O` [heptanoic acid], the “Solubility in water” value in data set [4] is reported as 0.2^2 g of compound in 100 g of water.

As to `CCCCCC(=O)O` [hexanoic acid], the “ECHA Inhalation Threshold” value in data set [1] (setting [8]) was 4.35^3 mg/m^3. Also, in data set [2] (setting [7]), the “Vapor Pressure” value is listed as 5.80^1 Pa.

For `CC(O)C(=O)O` (stereo not shown) [lactic acid], the “fraction of lactic acid in the acidic form” value in data set [5] was “at least 95%”.

Regarding `O=C(O)CC(=O)O` [malonic acid], the “ECHA Inhalation Threshold” value in data set [1] (setting [8]) is listed as 1.04^3 mg/m^3.

For `CC(=O)C(=O)O` [pyruvic acid], the “Solubility in water” value in data set [4] is given as 100^1 g of compound in 100 g of water. The solubility result in data set [4] (standard conditions (room temperature and 1 atm)) was “about 100 g/100 g water”.
